Assay [1] concerns the target T1, Human recombinant MAO-A (hMAO-A) (Homo sapiens, UniProt P21397).
T1 construct: purchased Sigma-Aldrich; host or cells: insect cells
T1 sequence (P21397 1-527): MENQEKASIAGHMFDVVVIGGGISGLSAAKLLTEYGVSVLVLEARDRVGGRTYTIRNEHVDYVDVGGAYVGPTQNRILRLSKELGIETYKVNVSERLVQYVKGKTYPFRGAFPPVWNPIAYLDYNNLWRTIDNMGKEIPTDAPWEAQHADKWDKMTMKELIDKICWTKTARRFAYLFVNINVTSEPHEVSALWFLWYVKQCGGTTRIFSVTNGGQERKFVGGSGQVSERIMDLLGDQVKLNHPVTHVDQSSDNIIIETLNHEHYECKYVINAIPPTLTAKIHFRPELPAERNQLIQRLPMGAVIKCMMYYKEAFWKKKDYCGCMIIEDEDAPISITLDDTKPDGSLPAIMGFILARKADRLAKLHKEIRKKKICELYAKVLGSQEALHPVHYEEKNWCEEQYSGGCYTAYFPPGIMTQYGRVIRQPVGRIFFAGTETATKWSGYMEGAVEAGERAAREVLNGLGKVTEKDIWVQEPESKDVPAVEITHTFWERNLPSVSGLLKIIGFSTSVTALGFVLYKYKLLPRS
The experiment in a line: MAO-A inhibition assay (Amplex Red fluorescence, p-tyramine substrate). Format: biochemical. Here is the method: The biological evaluation of the tested compounds over both MAO-A and MAO-B was performed following the previously reported method. The MAO activity was measured in relative fluorescence units (RFU) evoked by peroxidase-catalyzed oxidation of Amplex Red® to resorufin, in which H2O2 generated by MAO reaction was used as the electron donor. Human recombinant MAO-A (hMAO-A) and MAO-B (hMAO-B) enzymes expressed in insect cells were obtained from Sigma-Aldrich. The 2 μL of test compound in DMSO ([…]) was treated with 98 μL of hMAO enzyme solution in 50 mM sodium phosphate buffer (pH 7.4, final protein amounts: ~1.25 μg protein/well for MAO-A and ~2.5 μg protein/well for MAO-B) on 96-well black plate and incubated for 15 min at 37 °C. Then, 100 μL of reaction working solution which is a mixed solution of 400 μM Amplex Red® (Cayman, final concentration: 200 μM), 2 U/mL horseradish peroxidase (Sigma-Aldrich, final concentration: 1 U/mL) and 2 mM substrate (p-tyramine for MAO-A, benzylamine for MAO-B, Sigma-Aldrich, final concentration: 1 mM) in 50 mM sodium phosphate buffer (pH 7.4) were added and incubated for 20 min at 37 °C in the dark. The fluorescent intensity was quantified using a microplate reader (SpectraMax®i3, Molecular Device) with an excitation at 545 nm and an emission at 590 nm. The 50% inhibitory concentrations (IC50) of compounds were determined as the mean ± S.E.M. in triplicate from the dose-response inhibition curves using SigmaPlot® 13.0 (Systat Software Inc., San Jose, CA, USA).

In assay [2] the target is T2, hMAO-B enzyme (Homo sapiens, UniProt P27338).
T2 construct: purchased Sigma-Aldrich; host or cells: insect cells
T2 sequence (P27338 1-520): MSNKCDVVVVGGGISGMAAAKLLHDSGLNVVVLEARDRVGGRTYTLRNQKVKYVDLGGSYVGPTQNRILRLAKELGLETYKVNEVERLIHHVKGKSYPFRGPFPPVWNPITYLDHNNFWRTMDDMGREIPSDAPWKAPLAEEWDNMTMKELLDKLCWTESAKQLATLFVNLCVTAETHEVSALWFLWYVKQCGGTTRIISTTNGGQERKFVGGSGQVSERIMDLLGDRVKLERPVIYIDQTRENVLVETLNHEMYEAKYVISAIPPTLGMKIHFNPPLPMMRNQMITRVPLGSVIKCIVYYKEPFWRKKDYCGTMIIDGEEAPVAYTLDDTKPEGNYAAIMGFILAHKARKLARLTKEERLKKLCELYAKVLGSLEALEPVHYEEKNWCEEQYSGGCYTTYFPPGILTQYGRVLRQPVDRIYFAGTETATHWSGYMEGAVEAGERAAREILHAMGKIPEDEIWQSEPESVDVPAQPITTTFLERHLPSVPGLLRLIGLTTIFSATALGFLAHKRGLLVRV
The assay can be described thus: Michaelis-Menten kinetic study of MAO-B inhibition mode. Format: biochemical. Particulars: for Type of MAO-B inhibition: Lineweaver-Burk plots intersect at y-axis; for Ki: benzylamine 0.065-4 mM, inhibitor 10, 30, 100 nM, read-out: Ki (inhibition constant), MAO-B. The protocol: The type of MAO-B inhibition of the tested compounds was determined by Michaelis-Menten kinetic study following our recently reported study. The type of MAO-B inhibition of the tested compound(s) was determined by Michaelis–Menten kinetic study. The catalytic rates of the hMAO-B enzyme in the absence or in the presence of three different concentrations (10, 30, and 100 nM) of the tested compound were measured at seven different concentrations of the benzylamine (0.065, 0.125, 0.25, 0.5, 1, 2, and 4 mM). The corresponding progression curves and the Lineweaver-Burk plots were generated using GraphPad Prism 7 (GraphPad Software, Inc., La Jolla, CA, USA). The maximal velocity (Vmax), the Michaelis constant (Km), and the inhibition constant (Ki) were calculated using SigmaPlot® 13.0.
The initial rates of MAO-B inhibition in the absence and presence of the tested compound were measured at various concentrations (0.065, 0.125, 0.25, 0.5, 1, 2, and 4 mM) of benzylamine (a selective substrate for MAO-B). The corresponding progression curves and the Lineweaver-Burk plots were generated using GraphPad Prism 7. Both Michaelis–Menten and the Lineweaver-Burk plots were depicted in Figure 4 and Figure 5. […] The maximal velocity (Vmax), the Michaelis constant (Km), and the inhibition constant (Ki) were calculated using SigmaPlot®.

Each structure is given as a SMILES string. “Also recorded” adds a separate entry of the source. Where only a bound is given, the exact number is not on record here.

On to `COC(=O)c1ccc2c(ccn2C(=O)c2ccc(Cl)c(Cl)c2)c1` [Compound 7b, Methyl 1-(3,4-dichlorobenzoyl)-1H-indole-5-carboxylate], for which, in assay [1], the IC50 was more than 100000 nM, the inhibition at 10 µM was less than 10%, the inhibition at 30 µM is less than 10% and the inhibition at 100 µM was less than 10%.

On to `O=C(Nc1ccc(I)cc1)c1ccc2[nH]ccc2c1` [Compound 8a, N-(4-iodophenyl)-1H-indole-5-carboxamide], for which, in assay [2], the “Type of MAO-B inhibition” value was “competitive, and accordingly, reversible; also recorded: Competitive inhibition”; the inhibition constant (Ki) turned out to be 10.3 nM. Besides, in assay [1], the IC50 is more than 100000 nM, the inhibition at 10 µM was 17.2%, the inhibition at 30 µM came to 21.7% and the inhibition at 100 µM is 23.5%.

`O=C(Nc1ccc(Br)cc1)c1ccc2[nH]ccc2c1` [Compound 8b, N-(4-bromophenyl)-1H-indole-5-carboxamide]: in assay [2], the “Type of MAO-B inhibition” value is “competitive, and accordingly, reversible; also recorded: Competitive inhibition”; the Ki was determined as 6.63 nM. Moreover, in assay [1], the IC50 is more than 100000 nM, the inhibition at 10 µM came out at 15.1%, the inhibition at 30 µM was 27.9% and the inhibition at 100 µM was determined as 30.1%.

As to `O=C(Nc1ccc2c(c1)OCO2)c1ccc2[nH]ccc2c1` [Compound 8e, N-(benzo[d][1,3]dioxol-5-yl)-1H-indole-5-carboxamide], in assay [1], the IC50 is more than 100000 nM, the inhibition at 10 µM was less than 10%, the inhibition at 30 µM was less than 10% and the inhibition at 100 µM was less than 10%.

(Values after publication PMC8533206 (Antioxidants, 2021).)
